The source of these data is patent publication US8614179B2, “Antibacterial combination therapy for the treatment of gram positive bacterial infections” (E-Therapeutics PLC, priority 2008, dated 2013).

In the assay the test system is MRSA AND VRE. Put plainly: MIC by agar dilution, MIC50/MIC90/range over MRSA and VRE strain panel. In kind it is cell-based, Staphylococcus aureus; Enterococci. How it is done: In example experiments miconazole nitrate, econazole nitrate and clotrimazole were dissolved in DMSO. Colistin, D-cycloserine, fosfomycin and polymixin B were dissolved in water.
Other solvents that may be used include caster oil, pyridine, and 0.9% saline. For IV administration agents may be solubilised in polyethoxylated caster oil, or cyclodextrins such as sulfobutylether7-βcyclodextrin or hydroxypropyl-β-cyclodextrin and lactic acid. Minimum inhibitory concentrations (MICs) of a range of clinical and control bacterial organisms were measured according to BSAC (British Society for Antimicrobial Chemotherapy) guidelines (Andrews 2001), for single agents. […] MICs were measured by agar dilution. Kill curves were performed in accordance with the methods of Garrison and Nuemiller, 2007. Briefly kill profiles were generated by logarithmically plotting mean CFU/mL data over time. Total logarithmic reductions in bacterial counts were determined by subtracting 24 h CFU/mL values from starting inocula.
Stock solutions were prepared at concentrations of 1000 mg/L and 100 mg/L. To determine the MIC of miconazole, the appropriate amount of each stock solution were added to separate Petri dishes give a range of final concentrations (after the addition of 20 mL molten agar): from 0.12 to 32 mg/L. To determine the MICs of miconazole with the specific agent active on a bacterial cell surface, these concentrations of miconazole were used in addition to a fixed sub-inhibitory amount of the agent active on a bacterial cell surface. […] Volumes (20 mL) of cooled molten IST agar (oxoid) was added to each Petri dish and mixed by swirling. After drying, the plates were stored at 4° C. and protected from light. Plates were used on the day of preparation.
The test organisms were grown overnight in 5 mL IST broth. Using a dilution in 0.9% saline of 1:100, the appropriate agar plates were inoculated using a multipoint inoculator. […]
The MIC is the minimum amount of an antibiotic at which there is no visible growth of bacteria. Tiny single colonies or faint hazes were not counted as growth. […] The concentration of miconazole, with or without the cell membrane or cell wall active agent, capable of inhibiting the growth of 50% and 90% of the strains tested is reported as the MIC50 and MIC90 respectively. The range of MICs for each group of bacterial strains is also reported.
For orientation: Agar dilution tests growth on a series of plates holding different concentrations.

The mark [1] stands for this setting: Table 1a, MRSA n = 27, VRE n = 5, miconazole MIC alone or with D-cycloserine fixed at 10 mg/L.
Setting [2] is: Table 1b, MRSA n = 27, VRE n = 5, miconazole MIC alone or with fosfomycin fixed at 5 mg/L.
Where [3] appears, read: Table 1c, MRSA n = 21, VRE n = 3, miconazole MIC alone or with colistin fixed at 5 mg/L.
[4] abbreviates: Table 1e, MRSA n = 21, VRE n = 4, miconazole MIC alone or with nisin fixed at 2.5 mg/L.
Where [5] appears, read: Table 3, MRSA n = 27, VRE n = 5, miconazole alone, 1:1 bacitracin to miconazole, or with bacitracin fixed at 2.5 mg/L.

Converted amounts (≈) assume the structure as drawn. Read-outs that look alike come from different tables or passages of the source.

As a reminder, the MIC90 is the lowest concentration that inhibits either 90% of growth or 90% of the strains tested, depending on the study. Lower therefore signals higher susceptibility. `Clc1ccc(COC(Cn2ccnc2)c2ccc(Cl)cc2Cl)c(Cl)c1` (stereo not drawn) [Miconazole, 1-[2-(2,4-Dichlorophenyl)-2-[(2,4-dichlorophenyl)methoxy]ethyl]-1H-imidazole]: the MIC90 was determined as 4 µg/mL (≈ 9.61 µM) (24 h, Table 1d, MRSA n = 21, VRE n = 3, miconazole MIC alone or with polymixin B fixed at 20 mg/L); 2 µg/mL (≈ 4.81 µM) under setting [1]; 2 µg/mL (≈ 4.81 µM) under setting [2]; 4 µg/mL (≈ 9.61 µM) under setting [3]; 4 µg/mL (≈ 9.61 µM) under setting [4]; 2 µg/mL (≈ 4.81 µM) under setting [5]. The MIC 50 was 2 µg/mL (≈ 4.81 µM) (24 h, Table 1d, MRSA n = 21, VRE n = 3, miconazole MIC alone or with polymixin B fixed at 20 mg/L, read-out: MIC 50); 2 µg/mL (≈ 4.81 µM) (Table 1a, MRSA n = 27, VRE n = 5, miconazole MIC alone or with D-cycloserine fixed at 10 mg/L, read-out: MIC 50); 2 µg/mL (≈ 4.81 µM) under setting [2]; 2 µg/mL (≈ 4.81 µM) under setting [3]; 2 µg/mL (≈ 4.81 µM) under setting [4]; 2 µg/mL (≈ 4.81 µM) under setting [5]. Moreover, the “MIC Range” value fell in the range of 0.5 to 8 µg/mL under setting [1]; 0.5 to 8 µg/mL under setting [2]; 1 to 6 µg/mL under setting [3]; 0.5 to 8 µg/mL under setting [4]; 0.5 to 8 µg/mL under setting [5]; 1 to 6 µg/mL (Table 1d, MRSA n = 21, VRE n = 3, miconazole MIC alone or with polymixin B fixed at 20 mg/L).
